Measured values from the NIST ThermoML archive (doi:10.1016/j.jct.2016.12.034).
Numbers after ± are expanded uncertainties.

Conditions: Crystal; for vapor or sublimation pressure: Transpiration method

CC(=O)Nc1ccc(/C=N/NC(N)=S)cc1 [Thioacetazone]
Conditions	Normal melting temperature [°C]	vapor or sublimation pressure [kPa]
404.15 K	–	1.89e-05 ± 2.1e-06
406.15 K	–	2.23e-05 ± 2.5e-06
408.15 K	–	2.81e-05 ± 3.2e-06
410.15 K	–	3.67e-05 ± 4.1e-06
412.15 K	–	4.46e-05 ± 5e-06
415.15 K	–	6.04e-05 ± 6.6e-06
417.15 K	–	7.03e-05 ± 8.1e-06
420.15 K	–	0.0001125 ± 1.3e-05
423.15 K	–	0.0001414 ± 1.5e-05
425.15 K	–	0.0001651 ± 1.9e-05
427.15 K	–	0.0002376 ± 2.7e-05
429.15 K	–	0.0002851 ± 3.1e-05
DTA	229.00 ± 0.5	–
